Data reported in patent US4526894A, “Pharmaceutically active 4-hydroxy-3-benzoyl-2-quinolone derivatives” (Nippon Shinyaku Co. Ltd., priority 1982, dated 1985).

What was measured:
allergic asthma = conditions: cited from earlier work
[1] = test system: carrageenin edema in SD-strain rats; test: Carrageenin edema at hind foot of rats (anti-inflammatory action); type: in vivo, rat; conditions: Rattus norvegicus, po, 3 h, 200 mg/kg per os one hour before carrageenin; 3 hours after; read-out: % Inhibition of carrageenin edema
Description: The anti-inflammatory action of the compounds of the present invention were evaluated by measuring the inhibition against carrageein edema as set forth below.
Carrageenin edema at hind foot of rats:
SD-strain rats of body weights of around 150 grams were used, each group consisting of five rats. A solution (0.1 ml) of 0.5% carrageenin dissolved in physiological saline water was hypodermically injected into right hind foot pat of the rats and, one hour prior to the injection of carrageenin, 200 mg/kg of test compound was given per os. Foot volumes of the rats before the carrageenin treatment and those of three hours after the treatment were measured and the differences were compared with those of the control group to determine the effect of the compounds.

[2] = test system: passive cutaneous anaphylaxis (DNP-As antigen) in Wister strain rats; test: passive cutaneous anaphylaxis (PCA) assay in rats; type: in vivo; conditions: 10 mg/kg oral, one hour before antigen; for inhibition in vivo at 10 mg/kg: Rattus norvegicus, po, 1 h, read-out: PCA Inhibition Ratio %
Description: (i) Antiserum abundant in homocytotropic antibody is prepared by the same method as Tada and Okumura did (cf. Journal of Immunology, vol. 106, page 1002, 1976). Thus, 1 mg (calculated as an amount of protein) of DNP-As (2,4-dinitrophenyl-coupled ascaris extract) prepared by methods of Strejan and Campbell (Journal of Immunology, vol. 98, p. 893, 1971) and of Eisen (Journal of Amer. Chem. Soc., vol. 85, p 4593, 1953) and 1×10^10pertussis vaccine are administered to each paw of Wister strain rats (180 to 200 grams body weights) by dividing the dose by four. Five days later, 0.5 mg of DNP-As is administered into muscle of back. Eight days later from the initial immunization, blood is taken from descending aorta under anesthetizing with ether, the resulting serum is stored at -80° and is melted before use.
(ii) Effect of tested compounds is investigated as follows:
Anti-serum obtained by the method (i) is diluted with physiological saline solution double by double successively and 0.05 ml of each diluted solution is administered into back of Wister strain rats (140 to 160 grams body weight) subcutaneously. After 72 hours, a solution of 2 mg (calculated as protein) of DNP-As and 2.5 mg of Evans Blue dissolved in 1 ml of physiological saline solution is administered intraveously at a dose of 5 ml/kg. After 30 minutes from antigen solution administration, the animals are killed and diameters of blue spots appeared at the place where antiserum is administered are measured. The PCA test is conducted by the same method as already described using a diluted solutions of antiserum which always show 10 mm or more of spot diameters and the effect of the test compounds is judged. Thus antiserum diluted solutions are administered to two places in back. Test compounds are administered orally at the dose of 10 mg/kg one hour before administration of antigen solution. From the skin of reacted parts of killed animals, leaked or emitted dyestuff is extracted and the amount of the dyestuff is measured. The inhibition ratio is calculated by the following expression:
Inhibition Ratio=(1-A'/A)×100
in which A' is an amount of dyestuff in the group treated with the test compounds and A is that in the control group.

[3] = test system: SRS-A (slow reacting substance of anaphylaxis); test: Anti-SRS-A action using isolated ileus of guinea pigs
Description: Anti-SRS-As action (An anti-action against slow reacting substance of anaphylaxis).
Hartley strain male guinea pigs (300 to 350 grams body weight) are killed and 1.0 to 1.5 cm of ileus is immeidiately excised from ileocecal parts and is suspended in 10 ml of Tyrode solution (95% O2 -5% CO2 saturation) containing 10^-7 g/ml of atropine and 10^-6 g/ml of pyrilamine. SRS-A (20 units) (the amount of SRS-A showing the same shrinkage as 5 ng of histamine is defined as 1 unit) prepared by using sensitized guinea pig lung is given to cause shrinkage there. Then antagonistic action of test compounds treated five minutes ago against the shrinkage is measured and recorded via isotonic transducer.
Inhibition Ratio of Test Compd (%)=(1-A'/A)×100
in which A' is a height of shrinkage of SRS-A+test compound and A is that of SRS-A.

male mice = test: Acute oral toxicity in mice (lethal ratio); type: in vivo; conditions: 400 mg/kg oral, two weeks, four mice per group
Description: Acute toxicity was determined two weeks after oral administration of 400 mg/kg to male mice. Four mice (denominator) are used in each group and the dead numbers are given as the numerator. The compounds of the present invention show little, if any, toxicity.
Lethal ratios for all other compounds are 0/4 at doses of […]. It is therefore apparent that they are all safe compounds.

[4] = 10^-6 M; guinea pig ileus, SRS-A 20 units; 5 min, 1 µM

Compound	duration of action (in words) (allergic asthma; in vivo)	effect on allergic asthma (in words) (allergic asthma; in vivo)	effect on oral administration (in words) (allergic asthma; oral administration)	inhibition in vivo at 200 mg/kg [1] [%]	inhibition in vivo at 10 mg/kg [2] [%]	SRS-A Inhibition Ratio % [3, 4] [%]	Lethal Ratio (dead/treated) (male mice)	PCA Inhibition Ratio % ([2]; rat, 10 mg/kg) [%]	SRS-A Inhibition Ratio % ([3]; 10^-6 M, guinea pig ileus, SRS-A 20 units, 5 min, 1 µM) [%]	SRS-A Inhibition Ratio % (value in parentheses) ([3]; 10^-7 M; guinea pig ileus, SRS-A 20 units; 5 min, 0.1 µM) [%]
O=C(O)c1cc(=O)c2c(OCC(O)COc3cccc4oc(C(=O)O)cc(=O)c34)cccc2o1 [Sodium chromoglicate]	rather short	effective for allergic asthma	does not show any effect on oral administration	–	–	–	–	–	–	–
Cc1cccc2c(O)c(C(=O)c3ccccc3)c(=O)[nH]c12 [Example 19, 3-benzoyl-4-hydroxy-8-methyl-2-quinolone]	–	–	–	70	29.6	19.0	0/4	–	–	–
COC(=O)c1cccc2c(O)c(C(=O)c3ccccc3)c(=O)[nH]c12 [Example 13]	–	–	–	–	25.7	19.8	1/4	–	–	–
O=C(c1ccccc1)c1c(O)c2cccc(C(=O)O)c2[nH]c1=O [Example 16, 3-benzoyl-4-hydroxy-2-quinolone-8-carboxylic acid]	–	–	–	–	30.9	22.4	0/4	–	–	–
CCCCCCc1ccc2[nH]c(=O)c(C(=O)c3ccccc3)c(O)c2c1 [Example 23, 3-benzoyl-6-n-hexyl-4-hydroxy-2-quinolone]	–	–	–	15.9	–	–	0/4	13.1	83.3	32.8
